{
  "source": "patent US4140707A",
  "about": "“Malonato platinum anti-tumor compounds” (priority 1977, dated 1979)",
  "tested_on": "Sarcoma 180",
  "experiment": "Antitumor activity, solid Sarcoma 180 (Table I), T/C tumor weight ratio, sacrifice day 10",
  "assay_type": "in vivo, female Swiss white mice",
  "method": "The compounds of the invention were tested for anti-tumor activity using our standard screening tumor, solid sarcoma 180 tumer in female Swiss white mice, following standard protocols for this testing as set by the National Cancer Institute. (Cancer Chemotherapy Rep., 25(1962)).\nFor these tests an S 180 tumor taken from a sacrificed mouse was disected free of superfluous tissue and cut under sterile conditions into approximately 10 milligram size pieces. These tissue pieces were then implanted by trocar in the left axillary region, subcutaneously, in new mice. The mice were, on the average, approximately four weeks old and weighed 18-20 grams. Taking day 0 as the day of implant, the animals were sacrificed on day 10. The tumors were excised and weighed and the ratio of the weights of the tumors in mice in the treated animals to the control set of animals was obtained. This ratio, multiplied by 100, is given as the T/C ratio in Table I.\nFor the first set of tests the coordination compound was freshly dissolved in sterile distilled water and injected intraperitoneally on day 1 into each of the test mice. The volume of the injection was usually 1/2 ml. In some cases, in order to get an active dose into the animal where the chemical was not soluble in this amount of solvent, a fine dispersion was prepared of the dose needed for the test. Thus, some of our test results were obtained on animals where a slurry of the compound was injected. These are so noted in Table I below. In addition, for some of the compounds, there was injected about 1 ml of solution, either in one single injection, or in 2 injections given a few hours apart of 1/2 ml each. These injections were initially given in 4 different dose levels for each new compound with 6 mice in each dose level. The tests covered a dose range from a low ineffective dose, to an upper dose level which produced some deaths within the time period of the experiment.",
  "key": {"[1]": {"conditions": "40 mg/kg, single i.p. day 1, vehicle not noted"}, "[2]": {"conditions": "60 mg/kg, single i.p. day 1, vehicle not noted"}, "[3]": {"conditions": "80 mg/kg, single i.p. day 1, vehicle not noted"}, "[4]": {"conditions": "90 mg/kg, single i.p. day 1, vehicle not noted"}, "[5]": {"conditions": "100 mg/kg, single i.p. day 1, vehicle not noted"}, "[6]": {"conditions": "110 mg/kg, single i.p. day 1, vehicle not noted"}, "[7]": {"conditions": "120 mg/kg, single i.p. day 1, vehicle not noted"}, "[8]": {"conditions": "30 mg/kg, single i.p. day 1, solution in H2O"}, "[9]": {"conditions": "40 mg/kg, single i.p. day 1, solution in H2O"}, "[10]": {"conditions": "50 mg/kg, single i.p. day 1, solution in H2O"}, "[11]": {"conditions": "60 mg/kg, single i.p. day 1, solution in H2O"}, "[12]": {"conditions": "70 mg/kg, single i.p. day 1, solution in H2O"}, "[13]": {"conditions": "80 mg/kg, single i.p. day 1, solution in H2O"}, "[14]": {"conditions": "45 mg/kg, single i.p. day 1, vehicle not noted"}, "[15]": {"conditions": "75 mg/kg, single i.p. day 1, vehicle not noted"}, "[16]": {"conditions": "20 mg/kg, single i.p. day 1, vehicle not noted"}},
  "data": [
    {"smiles": "CCC1C(=O)[O][Pt]2([NH]CC[NH]2)[O]C1=O", "note": "[ethylmalonatoethylenediamineplatinum (II)]", "values": [
      {"measurement": "No. of Deaths", "setting": "[1]", "value": 0},
      {"measurement": "T/C", "setting": "[1]", "value": 72},
      {"measurement": "No. of Deaths", "setting": "[2]", "value": 0},
      {"measurement": "T/C", "setting": "[2]", "value": 81},
      {"measurement": "No. of Deaths", "setting": "[3]", "value": 0},
      {"measurement": "T/C", "setting": "[3]", "value": 79},
      {"measurement": "No. of Deaths", "setting": "[4]", "value": 0},
      {"measurement": "T/C", "setting": "[4]", "value": 47},
      {"measurement": "No. of Deaths", "setting": "[5]", "value": 1},
      {"measurement": "T/C", "setting": "[5]", "value": 55},
      {"measurement": "No. of Deaths", "setting": "[6]", "value": 0},
      {"measurement": "T/C", "setting": "[6]", "value": 41},
      {"measurement": "No. of Deaths", "setting": "[7]", "value": 0},
      {"measurement": "T/C", "setting": "[7]", "value": 58}
    ]},
    {"smiles": "CCC(C(=O)[O-])C(=O)[O-].N.N.[Pt+2]", "note": "[ethylmalontodiammineplatinum(II)]", "values": [
      {"measurement": "No. of Deaths", "setting": "[8]", "value": 0},
      {"measurement": "T/C", "setting": "[8]", "value": 57},
      {"measurement": "No. of Deaths", "setting": "[9]", "value": 0},
      {"measurement": "T/C", "setting": "[9]", "value": 43},
      {"measurement": "No. of Deaths", "setting": "[10]", "value": 0},
      {"measurement": "T/C", "setting": "[10]", "value": 47},
      {"measurement": "No. of Deaths", "setting": "[11]", "value": 0},
      {"measurement": "T/C", "setting": "[11]", "value": 39},
      {"measurement": "No. of Deaths", "setting": "[12]", "value": 0},
      {"measurement": "T/C", "setting": "[12]", "value": 17},
      {"measurement": "No. of Deaths", "setting": "[13]", "value": 0},
      {"measurement": "T/C", "setting": "[13]", "value": 16}
    ]},
    {"smiles": "CC(N)CN.O=C([O-])CC(=O)[O-].[Pt+2]", "note": "[malonato-1,2 propylenediamineplatinum (II)]", "values": [
      {"measurement": "No. of Deaths", "setting": "[14]", "value": 0},
      {"measurement": "T/C", "setting": "[14]", "value": 50},
      {"measurement": "No. of Deaths", "setting": "[2]", "value": 1},
      {"measurement": "T/C", "setting": "[2]", "value": 9},
      {"measurement": "No. of Deaths", "setting": "[15]", "value": 3},
      {"measurement": "T/C", "setting": "[15]", "value": 16},
      {"measurement": "No. of Deaths", "setting": "[4]", "value": 5}
    ]},
    {"smiles": "NCCCN.O=C([O-])CC(=O)[O-].[Pt+2]", "note": "[malonato-1,3 propylenediamineplatinum (II)]", "values": [
      {"measurement": "No. of Deaths", "setting": "[16]", "value": 0},
      {"measurement": "T/C", "setting": "[16]", "value": 69},
      {"measurement": "No. of Deaths", "setting": "[1]", "value": 0},
      {"measurement": "T/C", "setting": "[1]", "value": 79},
      {"measurement": "No. of Deaths", "setting": "[2]", "value": 0},
      {"measurement": "T/C", "setting": "[2]", "value": 21},
      {"measurement": "No. of Deaths", "setting": "[3]", "value": 1},
      {"measurement": "T/C", "setting": "[3]", "value": 35}
    ]}
  ]
}
